What was measured:
[1] = tested on: Tom+ NF1+/− cells; assay: Cell death assay (DAPI, cytometry) in floating sphere culture, control cells; assay type: cell-based, mouse; details: for Cell death of NF1+/− cells at highest concentration: 100 μM, excluded from analysis
Protocol: (§1) This study uses a Nf1-KO mouse strain(Prss56Cre/+, R26tdTom/+, NF1fl/fl) developing cutaneous neurofibromas (cNFs) that faithfully recapitulates human disease (Radomska et a., 2019). In this model, simultaneous bi-allelic loss of Nf1 and expression of Tomato fluorescent reporters were targeted into glial-stem like cells at the origin of cNFs. The assay was performed ex vivo using non-adherent cells in which Tomato expressing Nf1−/− and Nf1+/− stem-like cells from skin can be amplified, and their properties further characterized. […] In this system, Nf1−/− cells express high levels of p-ERK (as expected due to the permanent activation of the RAS pathway), proliferate much faster compared to controls and preserve the capacity to reform spheres after dissociation and re-plating.
(§2) This in vitro culture system uses Tomato (Tom)+ stem-like glial cells at the origin of cNFs that can be amplified and propagated for the long periods. Briefly, skin from young mutant (NF1−/−) and control (NF1+/−) mice was dissected, dissociated and cell suspension incubated in the non-adherent condition with the presence of two mitogens, FGF and EGF. In such conditions only stem-like cells survive, proliferate and form compact multicellular floating structures called neurospheres. Since, in addition to the Tom+ glial stem-like cells, skin contains various other types of stem cells (Tom−), the neurospheres are composed of the intermingled Tom+ and Tom− cells. While in the mutant condition, neurospheres contain Tom+, Nf1−/− and Tom−, Nf1+/+ cells, in the Nf1+/− control condition neurospheres are composed of Tom+, Nf1+/− and Tom−, Nf1+/+ cells. In this study we have analysed the drug effect in Tom+ from NF1−/− and NfF1+/− mice.
(§3) In the present study, floating sphere culture of Nf1+/−(Prss56Cre, R26Tom, Nf1flox/+) and Nf1−/− (Prss56Cre, R26Tom, Nf1flox/flox) glial cells isolated from newborn mouse skin were used. Then they are plated and treated and analysed independently. With this intent, Nf1+/− and Nf1−/− spheres were amplified until passage 3 (1 passage corresponds to 7 days of culture). At the end of PO (10 days), cells were split into 4 identical batches (clones 1-4), and were amplified to P3 (FIG. 1).
(§4) At the end of P3, spheres from each clone were dissociated and cells transferred into two 12 well plates. 6 different concentrations (100 μm, 33 μm, 10 μm, 3 μm, 1 μm and 0 μm) of drug were added and cells were incubated for 72 h. An additional 12 well plate containing cells with DMSO (vehicle used for the drug resuspension) was used as a reference for the normalization of results. After 72 h analyses was performed the on the non-fixed cells: proliferative and cell death assay.
(§5) At 72 h of culture, cells were labelled for quantification of cell death using DAPI (4′,6-diamidino-2-phenylindole). Labelled cells were analyzed by cytometry with LSR Fortessa X20 (BD Biosciences).

[2] = tested on: Tom+ NF1−/− cells; assay: Proliferative activity (CellTrace, cytometry) in floating sphere culture, mutant cells; assay type: cell-based, mouse; details: for Ratio MIFmean (proliferation): NF1−/− cells, normalised to DMSO
Protocol: as §1, §2, §3, §4
(§6) For the analysis of proliferative activity, a cell tracker lipophilic dye (CellTrace Proliferation Kit, Thermo Fishers) was used. The cell tacker was added at the same time as the drugs. Cells were incubated for 72 h and proliferative activity was measured by cytometry analysis using LSR Fortessa X20 (BD Biosciences). This method measures a mean fluorescence intensity (MIF) for each condition. The condition with DMSO was used as a reference.

[3] = tested on: Tom+ NF1−/− cells; assay: Cell death assay (DAPI, cytometry) in floating sphere culture, mutant cells; assay type: cell-based, mouse; details: for Ratio dead cells mean / Cell death of NF1−/− cells at highest concentration: 72 h; for Ratio dead cells mean: NF1−/− cells; for Cell death of NF1−/− cells at highest concentration: 100 μM, excluded from analysis
Protocol: as §1, §2, §3, §4, §5

[4] = tested on: cNF tumour cells (Tom+) in the skin of Nf1-KO mice; assay: In vivo drug testing in Nf1-KO mice with established cNFs; parameters: species or system mouse; details: one month
Source text: This study uses the same mouse model that was used for in vitro testing, the Prss56Cre/+, R26tdTom/+, NF1f/l mouse (Radomska et a., 2019). This study is a standard experimental design in the field with endpoints being terminal and not longitudinal throughout study.
Prss56Cre/+, R26tdTom/+, NF19/fl herein referred to as Nf1-KO mice develop cNFs after one year of age. However, cNF development occurs at an earlier age after skin injury induced by mice fighting, which is normal mouse behaviour. In this experiment, at least five six-week old Nf1-KO male mice were placed in a cage together, once the mice had sustained a level of skin injury via fighting they were removed from the cage and monitored. At approximately three months of age the mice that had sustained fighting injuries developed several cNFs. As a fluorescent reporter gene is turned on in cells that have Nf1 deleted, cNF development could be monitored via fluorescent imaging of the skin using an epifluorescent microscope (Leica MZ75). After 1-2 months mice that had established, mature cNFs were then enrolled into a drug treatment study. […]
Schwann cells that are Nf1-null also express the fluorescent reporter tomato (Tom+). cNFs are derived from Nf1-null SCs which are Tom+, therefore fluorescence can be used to identify tumours. […]

[5] = tested on: Tom+ NF1+/− cells; assay: Proliferative activity (CellTrace, cytometry) in floating sphere culture, control cells; assay type: cell-based, mouse
Protocol: This study uses a Nf1-KO mouse strain(Prss56Cre/+, R26tdTom/+, NF1fl/fl) developing cutaneous neurofibromas (cNFs) that faithfully recapitulates human disease (Radomska et a., 2019). In this model, simultaneous bi-allelic loss of Nf1 and expression of Tomato fluorescent reporters were targeted into glial-stem like cells at the origin of cNFs. The assay was performed ex vivo using non-adherent cells in which Tomato expressing Nf1−/− and Nf1+/− stem-like cells from skin can be amplified, and their properties further characterized. […]
This in vitro culture system uses Tomato (Tom)+ stem-like glial cells at the origin of cNFs that can be amplified and propagated for the long periods. […] In this study we have analysed the drug effect in Tom+ from NF1−/− and NfF1+/− mice.
In the present study, floating sphere culture of Nf1+/−(Prss56Cre, R26Tom, Nf1flox/+) and Nf1−/− (Prss56Cre, R26Tom, Nf1flox/flox) glial cells isolated from newborn mouse skin were used. Then they are plated and treated and analysed independently. […]
as §6, with “The cell tacker was added at the same time as the drugs.” left out, “The condition with DMSO was used as a reference.” left out

[6] = incubation with Selumetinib, concentration not given

Row | SMILES | Effect on cell death of NF1+/− cells ([1]; 33 μM, 72 h) | Cell death of NF1+/− cells at highest concentration ([1]; 72 h) | Cell death of NF1+/− cells at highest concentration ([1]; 72 h, listed as nitroxoline) | Effect on cell death of NF1+/− cells (control conditions) ([1]; lower concentrations (10 μM and below), 72 h) | Ratio MIFmean (proliferation) ([2]; 1 μM, 72 h) | Ratio MIFmean (proliferation) ([2]; 3 μM, 72 h) | Ratio MIFmean (proliferation) ([2]; 10 μM, 72 h) | Effect on proliferative activity of NF1−/− cells ([2]; 33 μM to 1 μM, 72 h, except clone 3) | Ratio MIFmean (proliferation) ([2]; 33 μM, 72 h) | Ratio dead cells mean ([3]; 10 μM) | Ratio dead cells mean ([3]; 33 μM) | Cell death of NF1−/− cells at highest concentration [3] | Cell death of NF1−/− cells at highest concentration ([3]; listed as nitroxoline) | Overall abundance of cNF tumour cells in the skin ([4]; 120 mg/kg once daily) | Tumour size versus vehicle treated mice (fluorescent imaging of Tom+ cells) ([4]; 120 mg/kg oral gavage once a day (5 days on, 2 days off)) | Effect on proliferation of NF1+/− cells ([5]; 33 μM to 1 μM, 72 h) | Effect on death of Nf1+/− cells [1, 6] | Effect on proliferative activity of Nf1−/− (mutant) cells [2, 6] | Effect on death of Nf1−/− (mutant) cells [3, 6] | Effect on proliferative activity of Nf1+/− cells [5, 6]
1 | O=[N+]([O-])c1ccc(O)c2ncccc12 [Nitroxoline, 5-nitroquinolin-8-ol] | without affecting NF1+/− cells | massive cell death | massive nonspecific death | without affecting control conditions | 0,7+/−0,26 | 0,60+/−0,22 | 0,5+/−0,18 | reduced proliferative activity | 0,39+/−0,11 | 2,04+/−0,63 | 8,86+/−0,66 | massive cell death | massive nonspecific death | reduces the overall abundance of cNF tumour cells | smaller | not affected |  |  |  | 
2 | Cn1cnc2c(F)c(Nc3ccc(Br)cc3Cl)c(C(=O)NOCCO)cc21 [Selumetinib, 6-(4-bromo-2-chloroanilino)-7-fluoro-N-(2-hydroxyethoxy)-3-methylbenzimidazole-5-carboxamide] |  |  |  |  |  |  |  |  |  |  |  |  |  |  |  |  | without affecting Nf1+/− cells | decreases proliferative activity | promotes death of mutant | without affecting Nf1+/− cells

From patent US20240261276A1, “NITROXOLINE FOR USE IN THE TREATMENT OF CUTANEOUS NEUROFIBROMA” (HEALX LTD, priority 2021, published 2024)
